Assay results from ChEMBL document CHEMBL1201862, “PubChem BioAssay data set” (2004).
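Where inhibition never reached the appropriate level, the endpoint shown equals the highest concentration tested. Otherwise, values were interpolated linearly from a five-concentration, 48-hour dose response in 96-well plates. At the GI50, growth is halved.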 Activity calls are given as the source filed them. No stated cut-off is given here; in the data, active = GI50 up to about 1.1 µM and inactive = higher.

Assays:
Test in all cases: DTP human tumour cell line panel, 48 h
NCI-H522 = test system: NCI-H522
HOP-62 = test system: HOP-62
RPMI-8226 = test system: RPMI-8226
OVCAR-5 = test system: OVCAR-5
HL-60 = test system: HL-60
TK-10 = test system: TK-10
CAKI-1 = test system: CAKI-1
A498 = test system: A498
KM12 = test system: KM12
IGROV-1 = test system: IGROV-1
SF-268 = test system: SF-268
UACC-257 = test system: UACC-257
KM-20L2 = test system: KM-20L2
Malme-3M = test system: Malme-3M
HCT-15 = test system: HCT-15
HCT-116 = test system: HCT-116
HOP-92 = test system: HOP-92
MOLT-4 = test system: MOLT-4
SR = test system: SR
DMS-114 = test system: DMS-114

Measured: GI50

NC(CSC(c1ccccc1)(c1ccccc1)c1ccccc1)C(=O)O (centres undefined)
active: NCI-H522 0.59 µM | RPMI-8226 0.569 µM | HL-60 0.433 µM | KM12 0.962 µM | HCT-116 0.615 µM
0.925 µM: HCT-15
inactive: HOP-62 1.43 µM | OVCAR-5 15.4 µM | TK-10 19.9 µM | CAKI-1 4.41 µM | A498 1.51 µM | IGROV-1 2.12 µM | SF-268 1.27 µM | UACC-257 1.84 µM | KM-20L2 1.82 µM | Malme-3M 2.17 µM | HOP-92 7.31 µM | MOLT-4 1.24 µM

Nc1nc[n+](Cc2ccccc2)c2ncn(Cc3ccccc3)c12
> 100 µM: HCT-15
inactive: NCI-H522 81.3 µM | HOP-62 32.6 µM | OVCAR-5 > 100 µM | HL-60 32.3 µM | TK-10 28.4 µM | CAKI-1 54.3 µM | A498 55.1 µM | KM12 68.9 µM | IGROV-1 > 100 µM | SF-268 > 100 µM | UACC-257 63.8 µM | KM-20L2 55.2 µM | Malme-3M 84.3 µM | HCT-116 37.9 µM | HOP-92 19.2 µM | SR 35.3 µM

N=C1SCCS1
> 100 µM: HCT-15
inactive: NCI-H522 > 100 µM | HOP-62 > 100 µM | RPMI-8226 > 100 µM | OVCAR-5 > 100 µM | HL-60 > 100 µM | TK-10 > 100 µM | CAKI-1 > 100 µM | KM12 > 100 µM | IGROV-1 > 100 µM | SF-268 > 100 µM | UACC-257 > 100 µM | KM-20L2 > 100 µM | Malme-3M > 100 µM | DMS-114 > 100 µM | HCT-116 > 100 µM | HOP-92 59 µM | MOLT-4 > 100 µM

C=C(Br)C(C)(Br)CCC(Br)C(C)(C)Br (centres undefined)
inactive: NCI-H522 14.7 µM | HOP-62 14.7 µM | RPMI-8226 21.7 µM | OVCAR-5 35.5 µM | HL-60 23.1 µM | TK-10 46.3 µM | CAKI-1 > 100 µM | KM12 40.1 µM | IGROV-1 19.7 µM | SF-268 30.2 µM | UACC-257 36.8 µM | Malme-3M 28.1 µM | DMS-114 17.2 µM | HCT-116 21.2 µM | HOP-92 18.6 µM | SR 13.4 µM | MOLT-4 24.3 µM
34.8 µM: HCT-15

O=C1/C(=C\c2ccccc2)c2ccccc2N1/N=C\c1ccccc1
43.9 µM: HCT-15
inactive: HOP-62 > 100 µM | RPMI-8226 57.3 µM | OVCAR-5 > 100 µM | TK-10 > 100 µM | CAKI-1 > 100 µM | A498 > 100 µM | KM12 49.1 µM | IGROV-1 > 100 µM | SF-268 > 100 µM | UACC-257 > 100 µM | KM-20L2 > 100 µM | Malme-3M > 100 µM | DMS-114 > 100 µM | HCT-116 77.4 µM | HOP-92 > 100 µM | MOLT-4 22.5 µM

COc1ccccc1/C=C(\NC(=O)c1ccccc1)c1nc2ccc(Cl)cc2[nH]1
inactive: NCI-H522 15.6 µM | RPMI-8226 9.64 µM | OVCAR-5 38 µM | TK-10 29.2 µM | CAKI-1 21.4 µM | A498 25.4 µM | KM12 23.7 µM | IGROV-1 26.9 µM | SF-268 30.3 µM | UACC-257 32.7 µM | KM-20L2 48.8 µM | Malme-3M 47.8 µM | DMS-114 17.2 µM | HCT-116 29 µM | HOP-92 22.7 µM | MOLT-4 15.2 µM
30.3 µM: HCT-15

CCOc1ccccc1NC(=O)C(=O)C(C(=O)c1ccc2ccccc2c1)C1OC(=O)c2ccccc21 (centres undefined)
inactive: NCI-H522 11.8 µM | HOP-62 13.4 µM | RPMI-8226 6.08 µM | OVCAR-5 21.2 µM | HL-60 10 µM | TK-10 24.4 µM | CAKI-1 10.4 µM | A498 14.3 µM | KM12 20.8 µM | IGROV-1 13 µM | SF-268 5.86 µM | UACC-257 13.7 µM | KM-20L2 28.3 µM | Malme-3M 14.3 µM | DMS-114 9.62 µM | HCT-116 9.2 µM | HOP-92 10.5 µM | MOLT-4 3.37 µM
14.2 µM: HCT-15

CC1=CCN(c2ccccn2)OC1c1ccccc1 (centres undefined)
inactive: NCI-H522 54.6 µM | HOP-62 > 100 µM | RPMI-8226 66.8 µM | OVCAR-5 59.8 µM | HL-60 66.8 µM | CAKI-1 > 100 µM | KM12 > 100 µM | IGROV-1 > 100 µM | SF-268 > 100 µM | UACC-257 > 100 µM | KM-20L2 > 100 µM | Malme-3M > 100 µM | DMS-114 > 100 µM | HCT-116 > 100 µM | SR 59.3 µM | MOLT-4 > 100 µM
> 100 µM: HCT-15

O=C(Nc1nnc(S)[nH]1)C(=O)C1C(=O)Nc2ccccc2[S+]1[O-] (centres undefined)
> 100 µM: HCT-15
inactive: NCI-H522 > 100 µM | HOP-62 > 100 µM | HL-60 > 100 µM | TK-10 > 100 µM | CAKI-1 > 100 µM | KM12 > 100 µM | IGROV-1 > 100 µM | SF-268 > 100 µM | UACC-257 > 100 µM | KM-20L2 > 100 µM | Malme-3M > 100 µM | DMS-114 > 100 µM | HCT-116 > 100 µM | HOP-92 > 100 µM | SR > 100 µM | MOLT-4 > 100 µM

O=C1N=C2Sc3ccc4ccccc4c3N2C1=O
24.2 µM: HCT-15
inactive: HOP-62 19.2 µM | RPMI-8226 > 100 µM | OVCAR-5 50.7 µM | HL-60 43.6 µM | TK-10 34.4 µM | CAKI-1 24.1 µM | KM12 32.7 µM | IGROV-1 19.1 µM | SF-268 24.7 µM | UACC-257 28.1 µM | KM-20L2 25.4 µM | Malme-3M 19.1 µM | DMS-114 39.7 µM | HCT-116 17.7 µM | HOP-92 15 µM | SR > 100 µM | MOLT-4 44.4 µM

CC1(C)COC(C23C4C5C2C2C3C4C52I)=N1 (centres undefined)
inactive: HOP-62 > 100 µM | RPMI-8226 > 100 µM | OVCAR-5 > 100 µM | TK-10 > 100 µM | CAKI-1 50.4 µM | A498 > 100 µM | IGROV-1 > 100 µM | SF-268 > 100 µM | UACC-257 > 100 µM | KM-20L2 > 100 µM | Malme-3M > 100 µM | DMS-114 > 100 µM | HOP-92 > 100 µM | MOLT-4 > 100 µM
> 100 µM: HCT-15

CCOC(=O)C1C(=O)c2cccc(OC)c2C2COC(=O)N12 (centres undefined)
inactive: NCI-H522 > 100 µM | HOP-62 > 100 µM | RPMI-8226 > 100 µM | OVCAR-5 > 100 µM | HL-60 > 100 µM | TK-10 > 100 µM | KM12 > 100 µM | IGROV-1 > 100 µM | SF-268 > 100 µM | UACC-257 > 100 µM | KM-20L2 > 100 µM | Malme-3M > 100 µM | DMS-114 > 100 µM | HCT-116 > 100 µM | HOP-92 > 100 µM | SR > 100 µM | MOLT-4 > 100 µM
> 100 µM: HCT-15

c1ccc(SC(CCCCC(Sc2ccccc2)Sc2ccccc2)Sc2ccccc2)cc1
inactive: HOP-62 > 100 µM | RPMI-8226 > 100 µM | HL-60 > 100 µM | TK-10 > 100 µM | CAKI-1 > 100 µM | A498 > 100 µM | KM12 > 100 µM | SF-268 > 100 µM | UACC-257 > 100 µM | KM-20L2 > 100 µM | DMS-114 > 100 µM | HCT-116 > 100 µM | HOP-92 > 100 µM | SR > 100 µM | MOLT-4 > 100 µM
> 100 µM: HCT-15

CCCCCCCCCCCCCC(=O)OCC1OC(OC)C(NC(=O)N(CCCl)N=O)C(O)C1O (centres undefined)
34.8 µM: HCT-15
inactive: NCI-H522 > 10 µM | HOP-62 17.2 µM | RPMI-8226 11.4 µM | OVCAR-5 25.6 µM | TK-10 37.9 µM | CAKI-1 > 100 µM | A498 27.1 µM | KM12 24.4 µM | IGROV-1 29.6 µM | SF-268 7.96 µM | UACC-257 14.2 µM | KM-20L2 21 µM | Malme-3M 27 µM | DMS-114 18.5 µM | HCT-116 14.3 µM | SR 3.71 µM | MOLT-4 2.06 µM

COc1cc2c(c(OC)c1OC)-c1ccc(SC)c(=O)cc1[C@@H](NCc1cccc([N+](=O)[O-])c1)CC2
inactive: OVCAR-5 > 100 µM | SR > 100 µM
active: NCI-H522 < 0.01 µM | HL-60 < 0.01 µM | TK-10 < 0.01 µM | CAKI-1 < 0.01 µM | KM12 < 0.01 µM | IGROV-1 < 0.01 µM | SF-268 < 0.01 µM | UACC-257 < 0.01 µM | KM-20L2 < 0.01 µM | Malme-3M < 0.01 µM | DMS-114 < 0.01 µM | HCT-116 < 0.01 µM | HOP-92 < 0.01 µM | MOLT-4 < 0.01 µM

COc1ccc2oc(-c3ccc(OC)c(OC)c3OC)cc(=O)c2c1
inactive: NCI-H522 18.8 µM | HOP-62 70.3 µM | RPMI-8226 17 µM | OVCAR-5 28.4 µM | HL-60 18.6 µM | TK-10 36.3 µM | CAKI-1 53 µM | IGROV-1 83.9 µM | SF-268 36.4 µM | UACC-257 55.6 µM | KM-20L2 24 µM | Malme-3M 40.7 µM | DMS-114 31.8 µM | HCT-116 34.6 µM | HOP-92 50.6 µM
